Reference: publication PMC8584265, “Stress Driven Discovery of Natural Products From Actinobacteria with Anti-Oxidant and Cytotoxic Activities Including Docking and ADMET Properties” (International Journal of Molecular Sciences, 2021)
≈ marks a conversion by molar mass, not a printed value. Read-outs that look alike come from different tables or passages of the source.

Tests used:
NO scavenging assay = assay type: biochemical; settings: for IC50 NO Inhibition: mean ± SD, triplicate
Procedure: (§1) To evaluate the antioxidant potential of the stress compound, a multifaceted antioxidant evaluation of a stress compound was performed via DPPH scavenging assay, OH● radical scavenging assay, NO scavenging assay, and Iron chelating assay by following pre-described protocols.

[1] = DPPH radical scavenging assay; assay type: biochemical; settings: for inhibition of free radical (DPPH): 100 µg/mL; for IC50 DPPH Scavenging: mean ± SD, triplicate
Procedure: as §1

blood lymphocytes = experiment: Comet assay (genotoxicity); assay type: cell-based
Procedure: To evaluate toxicity, blood lymphocytes were treated with 10 and 20 µg/mL MVL samples, 20 µg/mL EMS (positive), 1% DMSO in PBS (negative control), and comet assay was performed. The slides were envisioned under a fluorescent microscope, and the extent of DNA damage was evaluated by analyzing the photomicrographs via CASP 1.2.3.b image analysis. Analysis of 50–100 cells from each sample was performed to assess comet length, head length, tail length, tail moment, DNA content in the head, and tail of lymphocytes. […] The tail length (18.5 ± 1.4 µm) of EMS-treated DNA clearly indicates the production of nicks in nuclear content, representing a greater extent of genotoxicity. […]

[2] = OH● radical scavenging assay; assay type: biochemical; settings: for inhibition of OH● radicals: 100 µg/mL; for IC50 OH● Inhibition: mean ± SD, triplicate
Procedure: as §1

Iron chelating assay = assay type: biochemical; settings: for IC50 Iron Chelation: mean ± SD, triplicate
Procedure: as §1

P53 = experiment: Western blot expression analysis in PC3 cells; assay type: cell-based, human; settings: PC3, 0, 5 and 10 µg/mL, 48 h
Procedure: (§2) To unveil the possible mechanistic reason behind the anti-proliferation of cancer cell colonies in MTT assays, expression analysis of apoptotic proteins P53, BCL-2 and BAX were assessed via western blot technique (Figure 6). GAPDH served as a loading control. Prostate cancer cells (PC3) were treated with compound MVL at three concentrations (0, 5, and 10 µg/mL) for 48 h. Protein (40–60 µg) from protein lysate was segregated and probed with specified monoclonal antibodies.
(§3) Figure 6 Western blot analysis of proteins associated with MVL induced apoptosis. Prostate cancer cells, PC3 were treated with MVL at a concentration of 0, 5, and 10 µg/mL for 48 h. […] GAPDH was used as a loading control. Fold change in P-53, BAX, and BCL-2 expression after treating for 48 h with different concentrations of MVL. Means with different superscripts (^a–c) indicate significant (p < 0.001) difference in fold change between groups.
(§4) PC3 cells were cultured in a T75 flask (1 × 10^6/flask). After 48 h, cells were treated with […]. Following treatment, media was aspirated and cells were washed with cold PBS whose pH was maintained at 7.4 trypsinized and pelleted in 15 mL falcon tubes, and cold lysis buffer was added to the pellet. Protein extraction and western blot analysis were done by following the protocol described previously.

BCL-2 = experiment: Western blot expression analysis in PC3 cells; assay type: cell-based, human; settings: PC3, 0, 5 and 10 µg/mL, 48 h
Procedure: as §2, §3, §4

BAX = experiment: Western blot expression analysis in PC3 cells; assay type: cell-based, human; settings: PC3, 0, 5 and 10 µg/mL, 48 h
Procedure: as §2, §3, §4

[3] = system: prostate cancer cells (PC3); experiment: MTT cytotoxicity assay; assay type: cell-based; settings: Homo sapiens
Procedure: MTT assay was used to assess cytotoxicity against the human prostate PC3 cell line. […] PC3 cells were cultured in a humidified CO2 incubator at 37 °C in complete growth medium RPMI 1640 enriched with 2.2 g/L NaHCO3, 100 µg/mL streptomycin sulfate, 10% v/v heat-inactivated fetal bovine serum (HIFBS), […] amphotericin B, and 100 IU/mL penicillin G sodium. 20 µL of a compound in 1% DMSO in PBS and 180 µL of PC3 cancer cells were combined in a 96-well plate to reach a final concentration of 20 µg/mL for evaluating the cytotoxicity on PC3 cancer cells. The cells were loaded at an assay density of 1 × 10^4 cells/mL. The plate was incubated in humidified 5% CO2 at 37 °C for 24 h, 48 h, and 72 h. Cabazitaxel was utilized as a positive control, and 1 percent DMSO in PBS was employed as a negative control. Cabazitaxel was procured from Enzo life sciences, Fisher Scientific (Thermo Fisher Scientific, California, USA) CAS-183133-96-2 (ENZCHM2170010). A stock solution (4 mg/mL) of Cabazitaxel was prepared in DMSO and diluted in 1× PBS to make it 1% DMSO. Then serial dilutions of the standard compound were prepared in such a way that wells received 50, 25, 12.5, 6.25, and 3.12 µg/mL of Cabazitaxel with ≤1% DMSO. After that, 20 µL of pre-filter sterilized MTT solution was added to plates and incubated at 37 °C for 4 h in a CO2 incubator. Colored formazan crystals were detached by deliberately removing the supernatant and dissolved in 100 µL of DMSO with absorbance measured at 540 nm using Elx 800 microplate reader. Cytotoxicity was calculated using the following formula:% cytotoxicity = [100−(As/Ac × 100)] (1) where As and Ac show the absorbance of sample and negative control, respectively. Cytotoxicity was calculated with GraphPad Prism 5 software.

PC3 cells = experiment: In vitro scratch (cell migration) assay; assay type: cell-based, human; settings: PC3, 10 µg/mL, 24 h treatment; control 16.62 ± 4.4%
Procedure: Stress compound MVL was tested for cell migration of PC3 using an established in vitro scratch test for 24 h. MVL (10 µg/mL) appeared to induce a significant reduction in cell migration at 12 and 24 h treatment of PC3. This was estimated by comparing the scratch area at every observation time as a percentage of control at 0 h. The area of scratch at 24 h treatment with MVL was recorded as 61.10 ± 5.2% compared to control (16.62 ± 4.4%) (Figure 5).
Figure 5 In vitro scratch assay on MVL treated prostate cancer cells. PC3 cells were plated in 6-well plates and scratched at the full confluence. […] Reduction in the area of the scratch was Photographed using Olympus CKX41 microscope and measured using ImageJ software. Data is mean ± SEM percent area of scratch in triplicate at ***: p < 0.001 and ****: p < 0.0001.
In vitro wounds were induced by a modified protocol described, and the scratch assay was performed on cells to study the effect of stress compound on cell migration. In the growth medium of 24-well plates, […] were injected at a density of 5 × 10^4 cells/well. After achieving about 100% proliferation, the cells were shifted to the basal media for 24 h. […] Images were recorded instantly after being wounded and then again portrayed at 0, 12, and 24 h time points. Using Image J software, cell migration rates were quantified by measuring the wound area change (pixels).

SMILES	inhibition of NO free radicals (NO scavenging assay) [%]	IC50 NO Inhibition (NO scavenging assay) [µg/mL]	inhibition of free radical (DPPH) [1] [%]	IC50 DPPH Scavenging [1] [µg/mL]	% DNA in Head (blood lymphocytes; 20 µg/mL) [%]	% DNA in Tail (blood lymphocytes; 20 µg/mL)	Comet Length (blood lymphocytes; 20 µg/mL) [µm]	Head Length (blood lymphocytes; 20 µg/mL) [µm]	Tail Length (blood lymphocytes; 20 µg/mL) [µm]	Tail Moment (blood lymphocytes; 20 µg/mL)	inhibition of OH● radicals [2] [%]	IC50 OH● Inhibition [2] [µg/mL]	iron chelation capacity (Iron chelating assay) [%]	IC50 Iron Chelation (Iron chelating assay) [µg/mL]	IC50 ([3]; 24 h, read-out: IC50 24 h) [µg/mL]	IC50 ([3]; 48 h, read-out: IC50 48 h) [µg/mL]	IC50 ([3]; 72 h, read-out: IC50 72 h) [µg/mL]	further results
O=C1O[C@H]([C@@H](O)CO)C(O)=C1O [Ascorbic acid, reference compound]	81.69 ± 2.69	8.44 ± 4.17 (≈ 47.9 µM)	84.23 ± 2.9	6.52 ± 4.92 (≈ 37 µM)	–	–	–	–	–	–	–	–	–	–	–	–	–	–
CCOS(C)(=O)=O [EMS, Ethyl methane sulfonate, reference compound]	–	–	–	–	56.6 ± 3.5	43.4 ± 1.8 ^¥ %	42.6 ± 3.6	24.1 ± 2.7	18.5 ± 1.4	1.37 ± 0.11 ^¥ µm	–	–	–	–	–	–	–	–
O=C(O)c1cc(O)c(O)c(O)c1 [Gallic acid, reference compound]	–	–	–	–	–	–	–	–	–	–	83.15 ± 3.67	6.26 ± 6.39 (≈ 36.8 µM)	–	–	–	–	–	–
O=C(O)CN(CCN(CC(=O)O)CC(=O)O)CC(=O)O [EDTA, reference compound]	–	–	–	–	–	–	–	–	–	–	–	–	81.52 ± 4.67	10.20 ± 6.54 (≈ 34.9 µM)	–	–	–	–
CC1=CC(=O)OCC1 [MVL, anhydromevalonolactone]	80.05 ± 3.88	15.49 ± 4.8 (≈ 138 µM)	78.18 ± 4.2	19.65 ± 5.7 (≈ 175 µM)	80.6 ± 1.8	19.4 ± 2.6 ^β, ¥ %	41.4 ± 2.4	31.7 ± 1.8	8.5 ± 1.3	0.24 ± 0.03 ^β, ¥ µm	72.69 ± 4.93	19.65 ± 5.22 (≈ 175 µM)	70.96 ± 5.79	19.38 ± 7.11 (≈ 173 µM)	35.8 ± 4.2 (≈ 319 µM)	23.3 ± 3.8 (≈ 208 µM)	16.2 ± 6.5 (≈ 145 µM)	P53 protein expression (P53): upregulation; BCL-2 protein expression (BCL-2): downregulation; BAX protein expression (BAX): upregulation; % DNA in Head (blood lymphocytes; 10 µg/mL): 86.1 ± 2.8%; % DNA in Tail (blood lymphocytes; 10 µg/mL): 13.9 ± 1.8 ^β %; Comet Length (blood lymphocytes; 10 µg/mL): 42.6 ± 3.1 µm; Head Length (blood lymphocytes; 10 µg/mL): 36.7 ± 2.5 µm; Tail Length (blood lymphocytes; 10 µg/mL): 5.9 ± 0.3 µm; Tail Moment (blood lymphocytes; 10 µg/mL): 0.11 ± 0.03 ^β µm; area of scratch as percentage of control at 0 h (PC3 cells): 61.10 ± 5.2%
CO[C@H]1C(=O)[C@]2(C)[C@@H](OC)C[C@H]3OC[C@@]3(OC(C)=O)[C@H]2[C@H](OC(=O)c2ccccc2)[C@]2(O)C[C@H](OC(=O)[C@H](O)[C@@H](NC(=O)OC(C)(C)C)c3ccccc3)C(C)=C1C2(C)C [Cabazitaxel, reference compound]	–	–	–	–	–	–	–	–	–	–	–	–	–	–	21.2 ± 5.1 (≈ 25.3 µM)	15.1 ± 5.7 (≈ 18.1 µM)	9.25 ± 3.4 (≈ 11.1 µM)	–
